ChEMBL document CHEMBL1201862, “PubChem BioAssay data set” (2004)
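Grown in 96-well plates, cells were treated for 48 hours with each compound at five concentrations. Insufficient inhibition: endpoint recorded as highest concentration tested. Abbreviation: GI50, concentration required for 50% inhibition of growth.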 Calls of active or inactive are those of the source. No stated cut-off is given here; in the data, active = GI50 up to about 1.1 µM and inactive = higher.

Assays:
Assay in all cases: NCI-60 cell line screen, 48 h
OVCAR-3 = tested on: OVCAR-3
NCI/ADR-RES = tested on: NCI/ADR-RES
MDA-N = tested on: MDA-N
DU-145 = tested on: DU-145
SK-MEL-5 = tested on: SK-MEL-5
TK-10 = tested on: TK-10
SF-295 = tested on: SF-295
RPMI-8226 = tested on: RPMI-8226
SK-MEL-2 = tested on: SK-MEL-2
MCF7 = tested on: MCF7
UO-31 = tested on: UO-31
EKVX = tested on: EKVX
SF-539 = tested on: SF-539
UACC-257 = tested on: UACC-257
MOLT-4 = tested on: MOLT-4
LOX IMVI = tested on: LOX IMVI
K562 = tested on: K562
NCI-H23 = tested on: NCI-H23
CAKI-1 = tested on: CAKI-1
HT-29 = tested on: HT-29

SMILES	GI50 (OVCAR-3)	GI50 (NCI/ADR-RES)	GI50 (MDA-N)	GI50 (DU-145)	GI50 (SK-MEL-5)	GI50 (TK-10)	GI50 (SF-295)	GI50 (RPMI-8226)	GI50 (SK-MEL-2)	GI50 (MCF7)	GI50 (UO-31)	GI50 (EKVX)	GI50 (SF-539)	GI50 (UACC-257)	GI50 (MOLT-4)	GI50 (LOX IMVI)	GI50 (K562)	GI50 (NCI-H23)	GI50 (CAKI-1)	GI50 (HT-29)
Cc1ccc(/C=N/Nc2cc(C)c3cccc(C)c3n2)s1	8.02 µM (inactive)	2.99 µM (inactive)	8.89 µM (inactive)	10.5 µM (inactive)	9.86 µM (inactive)	14.7 µM (inactive)	7.1 µM (inactive)	6.67 µM (inactive)	16 µM (inactive)	4.11 µM (inactive)	5.79 µM (inactive)	13.5 µM (inactive)	13.9 µM (inactive)	18.7 µM (inactive)	3.21 µM (inactive)	1.63 µM (inactive)	3.46 µM (inactive)	12.2 µM (inactive)	15.8 µM (inactive)	2.86 µM (inactive)
COc1ccc2nccc(/C=C/c3ccc(N(C)C)cc3)c2c1	> 10 µM (inactive)	> 10 µM (inactive)	3.02 µM (inactive)	> 10 µM (inactive)	> 10 µM (inactive)	> 10 µM (inactive)	> 10 µM (inactive)	> 10 µM (inactive)	> 10 µM (inactive)	> 10 µM (inactive)	> 10 µM (inactive)	> 10 µM (inactive)	> 10 µM (inactive)	> 10 µM (inactive)	8.18 µM (inactive)	> 10 µM (inactive)	6.41 µM (inactive)	> 10 µM (inactive)	> 10 µM (inactive)	> 10 µM (inactive)
CN(/N=C\c1ccc2ccccc2c1)C1=NCCCCN1	36.5 µM (inactive)	26.7 µM (inactive)	16.3 µM (inactive)	54.2 µM (inactive)	13.8 µM (inactive)	20.2 µM (inactive)	15.7 µM (inactive)	19.8 µM (inactive)	23.8 µM (inactive)	18.2 µM (inactive)	13.8 µM (inactive)	19.7 µM (inactive)	21.7 µM (inactive)	16.4 µM (inactive)	17.6 µM (inactive)	13.6 µM (inactive)	17.4 µM (inactive)	29.8 µM (inactive)	11.8 µM (inactive)	16.1 µM (inactive)
CC(=O)O[C@H]1C(=O)[C@@]2(C)[C@H]([C@H](OC(=O)c3ccccc3)[C@]3(O)C[C@H](OC(=O)[C@H](O)[C@@H](NC(=O)c4ccccc4)c4ccccc4C)C(C)=C1C3(C)C)[C@]1(OC(C)=O)CO[C@@H]1C[C@@H]2O	0.324 µM (active)	> 25 µM (inactive)	0.0632 µM (active)	1.85 µM (inactive)	0.406 µM (active)	2.71 µM (inactive)	1.16 µM (inactive)	0.0904 µM (active)	2.34 µM (inactive)	0.113 µM (active)	6.46 µM (inactive)	7.4 µM (inactive)	0.433 µM (active)	0.718 µM (active)	0.411 µM (active)	0.631 µM (active)	0.211 µM (active)	0.948 µM (active)	5.35 µM (inactive)	0.13 µM (active)
NCCCCC(N)C(=O)NCCNc1ccc(NCCNC(=O)C(N)CCCCN)c2c1C(=O)c1ccccc1C2=O (stereo not given)	> 100 µM (inactive)	28.2 µM (inactive)	> 100 µM (inactive)	> 100 µM (inactive)	> 100 µM (inactive)	> 94.4 µM (inactive)	> 100 µM (inactive)	31.8 µM (inactive)	> 100 µM (inactive)	> 100 µM (inactive)	32.3 µM (inactive)	> 100 µM (inactive)	7.62 µM (inactive)	> 100 µM (inactive)	4.39 µM (inactive)	9.35 µM (inactive)	> 33.4 µM (inactive)	> 65.8 µM (inactive)	> 84.7 µM (inactive)	50.7 µM (inactive)
